Values after ≈ are worked out from the molar mass of the structure shown. Where two headings read alike, the source gives them in different places. Positions of bridges follow the written chain, without caps; N, C: chain ends. Non-standard residues stand in square brackets, D forms with d. Residues, ends and D or L forms follow the SMILES beside them. Lys(N3) = [N-]=[N+]=NCCCC[C@H](N)C(=O)O; 2Nal = N[C@@H](Cc1ccc2ccccc2c1)C(=O)O; Lys(Me2) = CN(C)CCCC[C@H](N)C(=O)O; R8 = C=CCCCCCC[C@@](C)(N)C(=O)O; Cit = NC(=O)NCCC[C@H](N)C(=O)O; Cba = N[C@@H](CC1CCC1)C(=O)O; S5 = C=CCCC[C@](C)(N)C(=O)O; Dab = NCC[C@H](N)C(=O)O; Aib = CC(C)(N)C(=O)O; Ahx = NCCCCCC(=O)O; βAla = NCCC(=O)O; Sar = CNCC(=O)O
How the values were obtained:
[1] = test system: HCT116 cells; assay: Lactate dehydrogenase (LDH) release assay; type: cell-based
Protocol: (§1) HCT116 cells were stably transfected with a p53 responsive β-lactamase reporter and expanded in McCoy’s 5 A Medium with 10% fetal bovine serum (FBS), Blasticidin, and Penicillin/Streptomycin and then transferred to 1.5 ml freezing vials and stored under liquid nitrogen in growth media containing 5% DMSO. […] The cells were then seeded into a 384-well plate at a density of 8000 cells per well. […] The final working concentration of DMSO was 0.5%. Lactate dehydrogenase release was detected using the CytoTox-ONE Homogenous Membrane Integrity Assay Kit (Promega), as per the manufacturer’s instructions. Measurements were carried out using the Tecan plate reader. […] Measurements were taken a minimum of three times (biological replicates) and values are reported as geometric means of the replicates.

[2] = Lactate dehydrogenase (LDH) release assay; type: cell-based
Protocol: as §1

[3] = Solubility assay (kinetic solubility, PBS pH 7); type: physicochemical; settings: pH 7, aqueous buffer, kinetic from dmso stock, pH 7, PBS; read-out: Solubility
Protocol: The standard reference solutions were prepared by diluting the 10 mM stock in 10:80:10 solution of acetonitrile:methanol:DMSO to 100 µM.
The solubility value is calculated by the following equation:
Solubility [µM] = (Peak area of sample/ Peak area of standard) (Standard concentration)

[4] = 0% FBS 4Hr, read-out: LDH: Cytotoxicity assay EC50
[5] = 10% FBS 16Hr, read-out: LDH: Cytotoxicity assay EC50

Compound	LDH: Cytotoxicity assay % Effect [1]	EC50 ([2]; LDH: Cytotoxicity assay EC50)	other results
CC(=O)N[C@@H](CCCCN)C(=O)N[C@@H](CCCCN)C(=O)N[C@H](C(=O)N[C@@H](CO)C(=O)N[C@@H](Cc1ccc2ccccc2c1)C(=O)N[C@]1(C)CCCCCCC=CCCC[C@@](C)(C(=O)N[C@@H](CCC(=O)O)C(N)=O)NC(=O)[C@H](CC2CCC2)NC(=O)[C@H](CC(C)C)NC(=O)[C@H](C)NC(=O)[C@H](Cc2c[nH]c3ccccc23)NC(=O)[C@H](Cc2ccc(O)cc2)NC(=O)[C@H](CCC(=O)O)NC1=O)[C@@H](C)O [MP-158] (Ac-KKTS[2Nal][R8]EYWAL[Cba][S5]E-NH2; staple 6-13)	9.197%	> 50 µM	–
CC(=O)N[C@@H](CCCCN=[N+]=[N-])C(=O)NCCC(=O)N[C@@H](CC(C)C)C(=O)N[C@H](C(=O)N[C@@H](Cc1ccccc1)C(=O)N[C@]1(C)CCCCCCC=CCCC[C@@](C)(C(=O)N[C@@H](C)C(=O)NC(C)(C)C(=O)NC(C)(C)C(=O)NC(C)(C)C(=O)NC(C)(C)C(=O)NC(C)(C)C(N)=O)NC(=O)[C@H](CC2CCC2)NC(=O)[C@H](CCC(N)=O)NC(=O)[C@H](C)NC(=O)[C@H](Cc2c[nH]c3ccccc23)NC(=O)[C@H](Cc2ccc(O)cc2)NC(=O)[C@H](CCC(=O)O)NC1=O)[C@@H](C)O [MP-413] (Ac-[Lys(N3)][βAla]LTF[R8]EYWAQ[Cba][S5]A[Aib][Aib][Aib][Aib][Aib]-NH2; staple 6-13)	–	–	LDH: Cytotoxicity assay % Effect ([1]; 0% FBS 4Hr): 8.4%; LDH: Cytotoxicity assay % Effect ([1]; 10% FBS 16Hr): 10.36%; EC50 [2, 4]: > 50.7 µM; EC50 [2, 5]: > 50.7 µM
CC(=O)N[C@@H](CCCCN=[N+]=[N-])C(=O)NCCC(=O)N[C@@H](CC(C)C)C(=O)N[C@H](C(=O)N[C@@H](Cc1ccccc1)C(=O)N[C@]1(C)CCCCCCC=CCCC[C@@](C)(C(=O)N[C@@H](C)C(=O)N(C)CC(=O)N(C)CC(=O)N(C)CC(=O)N(C)CC(=O)N(C)CC(N)=O)NC(=O)[C@H](CC2CCC2)NC(=O)[C@H](CCC(N)=O)NC(=O)[C@H](C)NC(=O)[C@H](Cc2c[nH]c3ccccc23)NC(=O)[C@H](Cc2ccc(O)cc2)NC(=O)[C@H](CCC(=O)O)NC1=O)[C@@H](C)O [MP-443] (Ac-[Lys(N3)][βAla]LTF[R8]EYWAQ[Cba][S5]A[Sar][Sar][Sar][Sar][Sar]-NH2; staple 6-13)	–	–	solubility kinetic [3]: 180 µM (≈ 390 µg/mL); LDH: Cytotoxicity assay % Effect ([1]; 0% FBS 4Hr): 8.392%; LDH: Cytotoxicity assay % Effect ([1]; 10% FBS 16Hr): 2.311%; EC50 [2, 4]: > 50.7 µM; EC50 [2, 5]: > 50.7 µM
CC(=O)N[C@@H](CCCCN=[N+]=[N-])C(=O)NCCC(=O)N[C@@H](CC(C)C)C(=O)N[C@H](C(=O)N[C@@H](Cc1ccccc1)C(=O)N[C@]1(C)CCCCCCC=CCCC[C@@](C)(C(=O)N[C@@H](CO)C(=O)N[C@@H](C)C(=O)N[C@@H](C)C(N)=O)NC(=O)[C@H](CC2CCC2)NC(=O)[C@H](CCC(N)=O)NC(=O)[C@H](C)N(C)C(=O)[C@H](Cc2c[nH]c3ccccc23)NC(=O)[C@H](Cc2ccc(O)cc2)NC(=O)[C@H](CCC(=O)O)NC1=O)[C@@H](C)O [MP-498]	–	–	LDH: Cytotoxicity assay: % Effect [1]: 7.026%; EC50 ([2]; LDH: Cytotoxicity assay: EC50): > 50 µM
CC(=O)N[C@@H](CCCCN=[N+]=[N-])C(=O)NCCC(=O)N[C@@H](CC(C)C)C(=O)N[C@H](C(=O)N[C@@H](Cc1ccccc1)C(=O)N[C@]1(C)CCCCCCC=CCCC[C@@](C)(C(=O)N[C@@H](CO)C(=O)N[C@@H](C)C(=O)N[C@@H](C)C(N)=O)NC(=O)[C@H](CC2CCC2)NC(=O)[C@H](CCC(N)=O)N(C)C(=O)[C@H](C)NC(=O)[C@H](Cc2c[nH]c3ccccc23)NC(=O)[C@H](Cc2ccc(O)cc2)NC(=O)[C@H](CCC(=O)O)NC1=O)[C@@H](C)O [MP-499]	–	–	LDH: Cytotoxicity assay: % Effect [1]: 13.75%; EC50 ([2]; LDH: Cytotoxicity assay: EC50): > 50.6 µM
CC(=O)N[C@@H](CCN)C(=O)N[C@@H](CCN)C(=O)NCCCCCC(=O)N[C@H](C(=O)N[C@@H](CO)C(=O)N[C@@H](Cc1ccccc1)C(=O)N[C@]1(C)CCCCCCC=CCCC[C@@](C)(C(=O)N[C@@H](CCC(=O)O)C(=O)N[C@@H](CC(N)=O)C(=O)N[C@@H](Cc2ccccc2)C(N)=O)NC(=O)[C@H](CC(C)C)NC(=O)[C@H](CC(C)C)NC(=O)[C@H](C)NC(=O)[C@H](Cc2c[nH]c3ccccc23)NC(=O)[C@H](Cc2ccc(O)cc2)NC(=O)[C@H](CCC(=O)O)NC1=O)[C@@H](C)O [MP-664] (Ac-[Dab][Dab][Ahx]TSF[R8]EYWALL[S5]ENF-NH2; staple 7-14)	4.71%	> 50 µM	–
CC(=O)N[C@@H](CN)C(=O)NCCCCCC(=O)N[C@H](C(=O)N[C@@H](CO)C(=O)N[C@@H](Cc1ccccc1)C(=O)N[C@]1(C)CCCCCCC=CCCC[C@@](C)(C(=O)N[C@@H](CCC(=O)O)C(=O)N[C@@H](CC(N)=O)C(=O)N[C@@H](Cc2ccccc2)C(N)=O)NC(=O)[C@H](CC(C)C)NC(=O)[C@H](CC(C)C)NC(=O)[C@H](C)NC(=O)[C@H](Cc2c[nH]c3ccccc23)NC(=O)[C@H](Cc2ccc(O)cc2)NC(=O)[C@H](CCC(=O)O)NC1=O)[C@@H](C)O [MP-665]	4.993%	> 50 µM	–
CC(=O)N[C@@H](CCN)C(=O)NCCCCCC(=O)N[C@H](C(=O)N[C@@H](CO)C(=O)N[C@@H](Cc1ccccc1)C(=O)N[C@]1(C)CCCCCCC=CCCC[C@@](C)(C(=O)N[C@@H](CCC(=O)O)C(=O)N[C@@H](CC(N)=O)C(=O)N[C@@H](Cc2ccccc2)C(N)=O)NC(=O)[C@H](CC(C)C)NC(=O)[C@H](CC(C)C)NC(=O)[C@H](C)NC(=O)[C@H](Cc2c[nH]c3ccccc23)NC(=O)[C@H](Cc2ccc(O)cc2)NC(=O)[C@H](CCC(=O)O)NC1=O)[C@@H](C)O [MP-666]	15.43%	> 50 µM	–
CC(=O)N[C@H](C(=O)N[C@@H](CCCNC(N)=O)C(=O)N[C@@H](CCCCN)C(=O)NCCCCCC(=O)N[C@H](C(=O)N[C@@H](CO)C(=O)N[C@@H](Cc1ccccc1)C(=O)N[C@]1(C)CCCCCCC=CCCC[C@@](C)(C(=O)N[C@@H](CCC(=O)O)C(=O)N[C@@H](CC(N)=O)C(=O)N[C@@H](Cc2ccccc2)C(N)=O)NC(=O)[C@H](CC(C)C)NC(=O)[C@H](CC(C)C)NC(=O)[C@H](C)NC(=O)[C@H](Cc2c[nH]c3ccccc23)NC(=O)[C@H](Cc2ccc(O)cc2)NC(=O)[C@H](CCC(=O)O)NC1=O)[C@@H](C)O)C(C)C [MP-668] (Ac-V[Cit]K[Ahx]TSF[R8]EYWALL[S5]ENF-NH2; staple 8-15)	4.429%	> 50 µM	–
CC(=O)N[C@H](C(=O)N[C@@H](CCCNC(N)=O)C(=O)N[C@@H](CC(C)C)C(=O)N[C@H](C(=O)N[C@@H](Cc1ccccc1)C(=O)N[C@]1(C)CCCCCCC=CCCC[C@@](C)(C(=O)N[C@@H](CO)C(=O)N[C@@H](C)C(=O)N[C@@H](C)C(N)=O)NC(=O)[C@H](CC2CCC2)NC(=O)[C@H](CCC(N)=O)NC(=O)[C@H](C)NC(=O)[C@H](Cc2c[nH]c3ccccc23)NC(=O)[C@H](Cc2ccc(O)cc2)NC(=O)[C@H](CCC(=O)O)NC1=O)[C@@H](C)O)C(C)C [MP-669]	9.923%	> 50 µM	–
CC(=O)N[C@@H](CCCCN=[N+]=[N-])C(=O)NCCC(=O)N[C@@H](CC(C)C)C(=O)N[C@H](C(=O)N[C@@H](Cc1ccccc1)C(=O)N[C@]1(C)CCCCCCC=CCCC[C@@](C)(C(=O)N[C@@H](CO)C(=O)N[C@@H](C)C(=O)N[C@@H](C)C(N)=O)NC(=O)[C@H](CC2CCC2)NC(=O)[C@H](CCC(N)=O)NC(=O)[C@H](C)NC(=O)[C@H](Cc2c[nH]c3cc(Cl)ccc23)NC(=O)[C@H](Cc2ccc(CP(=O)(O)O)cc2)NC(=O)[C@H](CCC(=O)O)NC1=O)[C@@H](C)O [MP-891]	–	–	LDH: Cytotoxicity assay: % Effect ([1]; 0% FBS 4Hr): 3.299%; EC50 ([2]; 0% FBS 4Hr, read-out: LDH: Cytotoxicity assay: EC50): > 50.6 µM
CC(=O)N[C@H](C(=O)N[C@@H](CO)C(=O)N[C@@H](Cc1ccccc1)C(=O)NC(C)(C)C(=O)N[C@@H](CCC(=O)O)C(=O)N[C@@H](Cc1ccc(O)cc1)C(=O)N[C@@H](Cc1c[nH]c2ccccc12)C(=O)N[C@@H](C)C(=O)N[C@@H](CC(C)C)C(=O)N[C@@H](CC1CCC1)C(=O)NC(C)(C)C(N)=O)[C@@H](C)O [MP-1154] (Ac-TSF[Aib]EYWAL[Cba][Aib]-NH2)	17.78%	> 50 µM	–
CC(=O)N[C@@H](CCCCN(C)C)C(=O)N[C@@H](CCCCN(C)C)C(=O)NCCCCCC(=O)N[C@H](C(=O)N[C@@H](CO)C(=O)N[C@@H](Cc1ccccc1)C(=O)N[C@]1(C)CCCCCCC=CCCC[C@@](C)(C(=O)N[C@@H](CCC(=O)O)C(=O)N[C@@H](CC(N)=O)C(=O)N[C@@H](Cc2ccccc2)C(N)=O)NC(=O)[C@H](CC(C)C)NC(=O)[C@H](CC(C)C)NC(=O)[C@H](C)NC(=O)[C@H](Cc2c[nH]c3ccccc23)NC(=O)[C@H](Cc2ccc(O)cc2)NC(=O)[C@H](CCC(=O)O)NC1=O)[C@@H](C)O [MP-2042] (Ac-[Lys(Me2)][Lys(Me2)][Ahx]TSF[R8]EYWALL[S5]ENF-NH2; staple 7-14)	5.569%	> 50 µM	–
CC(=O)N[C@H](C(=O)N[C@@H](CCCNC(N)=O)C(=O)N[C@H](C(=O)N[C@@H](CO)C(=O)N[C@@H](Cc1ccccc1)C(=O)N[C@]1(C)CCCCCCC=CCCC[C@@](C)(C(N)=O)NC(=O)[C@H](CC(C)C)NC(=O)[C@H](CC(C)C)NC(=O)[C@H](C)NC(=O)[C@H](Cc2c[nH]c3ccccc23)NC(=O)[C@H](Cc2ccc(O)cc2)NC(=O)[C@H](CCC(=O)O)NC1=O)[C@@H](C)O)C(C)C [MP-9667]	5.511%	> 50 µM	–

From publication PMC10786919, “Design-rules for stapled peptides with in vivo activity and their application to Mdm2/X antagonists” (Nature Communications, 2024)
